US20230322723A1, “COMPOUNDS FOR SUPPRESSING EGFR MUTANT CANCER AND PHARMACEUTICAL USE THEREOF” (J2H BIOTECH INC., priority 2020, published 2023)

Experiments:
EGFR^del19+T790M+C797S = assay: EGFR protein degradation test (Western blot) in Ba/F3 cells expressing mutant EGFR del19+T790M+C797S (DTC); type: cell-based; details: compounds at 0.1 μM and 1 μM, 24 hours, Western blot with EGFR antibody
Outline: (§1)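 Ba/F3 cells expressing wild-type EGFR, del19+T790M+C797S or L858R+T790M+C797S EGFR were treated with compound at 0.1 μM and 1 μM for 24 h. Lysates (30 μg) were analysed by SDS-PAGE and EGFR Western blot, with bands quantified densitometrically.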

EGFR^L858R+T790M+C797S = biological target: T1, EGFR^L858R+T790M+C797S (Homo sapiens, UniProt P00533, C797S/L858R/T790M); assay: EGFR protein degradation test (Western blot) in Ba/F3 cells expressing mutant EGFR L858R+T790M+C797S (LTC); type: cell-based; details: compounds at 0.1 μM and 1 μM, 24 hours, Western blot with EGFR antibody
T1 construct: expressed in transfected cells; host or cells: Ba/F3
T1 sequence (P00533 25-1210 T790M/C797S/L858R): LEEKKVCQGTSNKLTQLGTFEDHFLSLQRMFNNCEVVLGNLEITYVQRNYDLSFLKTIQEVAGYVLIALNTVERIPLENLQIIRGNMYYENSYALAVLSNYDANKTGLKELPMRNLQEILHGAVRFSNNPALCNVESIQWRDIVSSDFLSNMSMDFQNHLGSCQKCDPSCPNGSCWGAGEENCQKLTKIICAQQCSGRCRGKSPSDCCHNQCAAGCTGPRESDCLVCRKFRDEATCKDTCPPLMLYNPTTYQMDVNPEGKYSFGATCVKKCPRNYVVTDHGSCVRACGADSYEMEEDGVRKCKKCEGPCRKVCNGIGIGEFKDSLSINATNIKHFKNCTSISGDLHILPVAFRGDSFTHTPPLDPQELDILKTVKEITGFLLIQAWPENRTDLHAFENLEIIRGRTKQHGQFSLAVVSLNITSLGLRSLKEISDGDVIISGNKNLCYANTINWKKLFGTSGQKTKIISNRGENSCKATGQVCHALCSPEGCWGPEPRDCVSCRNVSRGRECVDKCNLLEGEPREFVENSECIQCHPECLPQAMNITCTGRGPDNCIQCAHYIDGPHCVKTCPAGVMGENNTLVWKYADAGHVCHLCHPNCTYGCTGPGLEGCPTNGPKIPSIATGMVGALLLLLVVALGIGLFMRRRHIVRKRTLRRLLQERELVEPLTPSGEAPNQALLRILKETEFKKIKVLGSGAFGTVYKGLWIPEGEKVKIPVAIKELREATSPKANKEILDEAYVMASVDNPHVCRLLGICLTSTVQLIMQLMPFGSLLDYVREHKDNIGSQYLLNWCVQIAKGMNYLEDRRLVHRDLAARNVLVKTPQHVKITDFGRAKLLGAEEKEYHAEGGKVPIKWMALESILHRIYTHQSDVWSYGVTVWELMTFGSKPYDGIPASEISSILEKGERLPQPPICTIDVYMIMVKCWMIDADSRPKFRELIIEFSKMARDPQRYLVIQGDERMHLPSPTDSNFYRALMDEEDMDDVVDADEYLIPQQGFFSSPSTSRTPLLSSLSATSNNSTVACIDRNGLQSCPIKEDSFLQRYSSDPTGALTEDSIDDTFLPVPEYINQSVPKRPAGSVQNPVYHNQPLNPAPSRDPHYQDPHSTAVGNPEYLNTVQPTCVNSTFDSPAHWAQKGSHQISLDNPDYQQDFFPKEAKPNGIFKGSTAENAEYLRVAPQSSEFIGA
Outline: as §1

[1] = Pharmacokinetic evaluation after single oral administration to ICR mice; type: in vivo; details: for half-life / AUC(0-t): mouse, ICR mice, single oral dose 5 mg/kg, plasma; for AUC(0-t): read-out: AUC0-24; for AUC compared to the corresponding compounds: 69, 70, 75, 78, 82 vs compounds 53 and 65
Experimental: Pharmacokinetic tests for the compounds of the present invention were conducted as below. After a single oral administration of the compound of the present invention to ICR mice, the concentration of the compound over time was followed up and analyzed.
The compound of the present invention was suspended in 10% DMSO/90% (30% HPbCD aqueous solution) and orally administered to mice at a dose of 5 mg/kg. Blood was collected at a fixed time and plasma was separated. Drug analysis was performed using HPLC (XBridge column C18, Waters, mobile phase 0.1% formic acid:acetonitrile (30:70, %/%)) and MS/MS (ESI positive, MRM). Mouse blood plasma and each commercially available standard solution were mixed at a ratio of 9:1 to prepare and calibrate at concentrations of […] 5,000 ng/mL. In addition, the preparation of QC samples was prepared by mixing the mouse blood plasma and the standard solution for QC at a ratio of 9:1, and prepared to be concentrations of 100, 750 and 2,500 ng/mL. 100 μL of the plasma sample was transferred to a centrifugation tube, and 10 μL of the internal standard solution and 300 μL of methanol were added, followed by mixing for about 30 seconds for pretreatment. The tube was centrifuged at 3,000×g (4° C.) for about 5 minutes, and the supernatant was taken and transferred to an LC vial and injected into the instrument. Then, the concentration of the compound in mouse plasma was quantified by applying a previously validated assay. For pharmacokinetic parameters, the program WinNonlin 5.2 (Pharsight, USA) was used. AUC0-t, AUC0-∞, Cmax, Tmax, and t1/2 were calculated by Noncompartment modeling (best fit). The pharmacokinetic parameter results were expressed as the mean (Mean) and standard deviation (SD), and were statistically processed using the SPSS program (Statistical Package for the Social Sciences, 10.0K, USA).

SMILES	DTC (EGFR^del19+T790M+C797S) protein degradation (EGFR^del19+T790M+C797S)	LTC (EGFR^L858R+T790M+C797S) protein degradation (EGFR^L858R+T790M+C797S)	half-life [1]	AUC(0-t) [1]	AUC compared to the corresponding compounds [1]
CN(c1ccccc1Nc1nc(Nc2ccc(N3CCN(CC4CCN(C(=O)COc5cccc6c5C(=O)N(C5CCC(=O)NC5=O)C6=O)CC4)CC3)c(F)c2)ncc1Cl)S(C)(=O)=O (stereo not drawn) [Compound 43, N-(2-((5-chloro-2-((4-(4-((1-(2-((2-(2,6-dioxopiperidin-3-yl)-1,3-dioxoisoindolin-4-yl)oxy)acetyl)piperidin-4-yl)methyl)piperazin-1-yl)-3-fluorophenyl)amino)pyrimidin-4-yl)amino)phenyl)-N-methylmethanesulfonamide]	++ (Protein degradation > 80%)	++ (Protein degradation > 80%)	5.07 h	346 ng·h/mL	–
COc1cc(N2CCC(N3CCN(CCNc4cccc5c4C(=O)N(C4CCC(=O)NC4=O)C5=O)CC3)CC2)ccc1Nc1ncc(Cl)c(Nc2ccccc2N(C)S(C)(=O)=O)n1 (stereo not drawn) [Compound 45, N-(2-((5-chloro-2-((4-(4-(4-(2-((2-(2,6-dioxopiperidin-3-yl)-1,3-dioxoisoindolin-4-yl)amino)ethyl)piperazin-1-yl)piperidin-1-yl)-2-methoxyphenyl)amino)pyrimidin-4-yl)amino)phenyl)-N-methylmethanesulfonamide]	++ (Protein degradation > 80%)	++ (Protein degradation > 80%)	3.45 h	992 ng·h/mL	–
COc1cc(N2CCC(N3CCN(CC(=O)Nc4ccc5c(c4)CN(C4CCC(=O)NC4=O)C5=O)CC3)CC2)ccc1Nc1ncc(Cl)c(Nc2ccccc2N(C)S(C)(=O)=O)n1 (stereo not drawn) [Compound 47, 2-(4-(1-(4-((5-chloro-4-((2-(N-methylmethylsulfonamido)phenyl)amino)pyrimidin-2-yl)amino)-3-methoxyphenyl)piperidin-4-yl)piperazin-1-yl)-N-(2-(2,6-dioxopiperidin-3-yl)-1-oxoisoindolin-5-yl)acetamide]	++ (Protein degradation > 80%)	++ (Protein degradation > 80%)	4.13 h	134 ng·h/mL	–
COc1cc(N2CCC(N3CCN(CCC4CCN(c5ccc6c(c5)C(=O)N(C5CCC(=O)NC5=O)C6=O)CC4)CC3)CC2)ccc1Nc1ncc(Cl)c(Nc2ccccc2N(C)S(C)(=O)=O)n1 (stereo not drawn) [Compound 51, N-(2-((5-chloro-2-((4-(4-(4-(2-(1-(2-(2,6-dioxopiperidin-3-yl)-1,3-dioxoisoindolin-5-yl)piperidin-4-yl)ethyl)piperazin-1-yl)piperidin-1-yl)-2-methoxyphenyl)amino)pyrimidin-4-yl)amino)phenyl)-N-methylmethanesulfonamide]	++ (Protein degradation > 80%)	++ (Protein degradation > 80%)	2.81 h	635 ng·h/mL	–
COc1cc(N2CCN(CC3CCN(C(=O)COc4cccc5c4C(=O)N(C4CCC(=O)NC4=O)C5=O)CC3)CC2)ccc1Nc1ncc(Cl)c(Nc2ccccc2N(C)S(C)(=O)=O)n1 (stereo not drawn) [Compound 53, N-(2-((5-chloro-2-((4-(4-((1-(2-((2-(2,6-dioxopiperidin-3-yl)-1,3-dioxoisoindolin-4-yl)oxy)acetyl)piperidin-4-yl)methyl)piperazin-1-yl)-2-methoxyphenyl)amino)pyrimidin-4-yl)amino)phenyl)-N-methylmethanesulfonamide]	++ (Protein degradation > 80%)	++ (Protein degradation > 80%)	3.65 h	44 ng·h/mL	–
COc1cc(N2CCN(CC3CCN(C(=O)CCc4cccc5c4C(=O)N(C4CCC(=O)NC4=O)C5=O)CC3)CC2)ccc1Nc1ncc(Cl)c(Nc2ccccc2N(C)S(C)(=O)=O)n1 (stereo not drawn) [Compound 54, N-(2-((5-chloro-2-((4-(4-((1-(3-(2-(2,6-dioxopiperidin-3-yl)-1,3-dioxoisoindolin-4-yl)propanoyl)piperidin-4-yl)methyl)piperazin-1-yl)-2-methoxyphenyl)amino)pyrimidin-4-yl)amino)phenyl)-N-methylmethanesulfonamide]	++ (Protein degradation > 80%)	++ (Protein degradation > 80%)	6.12 h	840 ng·h/mL	–
COc1cc(N2CCN(CC3CCN(C(=O)CNc4cccc5c4C(=O)N(C4CCC(=O)NC4=O)C5=O)CC3)CC2)ccc1Nc1ncc(Cl)c(Nc2ccccc2N(C)S(C)(=O)=O)n1 (stereo not drawn) [Compound 65, N-(2-((5-chloro-2-((4-(4-((1-((2-(2,6-dioxopiperidin-3-yl)-1,3-dioxoisoindolin-4-yl)glycyl)piperidin-4-yl)methyl)piperazin-1-yl)-2-methoxyphenyl)amino)pyrimidin-4-yl)amino)phenyl)-N-methylmethanesulfonamide]	++ (Protein degradation > 80%)	++ (Protein degradation > 80%)	4.01 h	607 ng·h/mL	–
COc1cc(N2CCN(CC3CCN(C(=O)[C@@H](C)Oc4cccc5c4C(=O)N(C4CCC(=O)NC4=O)C5=O)CC3)CC2)ccc1Nc1ncc(Cl)c(Nc2ccccc2N(C)S(C)(=O)=O)n1 (stereo partly drawn) [Compound 69]	++ (Protein degradation > 80%)	++ (Protein degradation > 80%)	3.22 h	280 ng·h/mL	significantly improved AUC
COc1cc(N2CCN(CC3CCN(C(=O)[C@H](C)Nc4cccc5c4C(=O)N(C4CCC(=O)NC4=O)C5=O)CC3)CC2)ccc1Nc1ncc(Cl)c(Nc2ccccc2N(C)S(C)(=O)=O)n1 (stereo partly drawn) [Compound 70, N-(2-((5-chloro-2-((4-(4-((1-((2-(2,6-dioxopiperidin-3-yl)-1,3-dioxoisoindolin-4-yl)-L-alanyl)piperidin-4-yl)methyl)piperazin-1-yl)-2-methoxyphenyl)amino)pyrimidin-4-yl)amino)phenyl)-N-methylmethanesulfonamide]	++ (Protein degradation > 80%)	++ (Protein degradation > 80%)	3.07 h	598 ng·h/mL	significantly improved AUC
COc1cc(N2CCC(N3CCN(CC4CCN(c5ccc6c(c5)C(=O)N(C5CCC(=O)NC5=O)C6=O)CC4)CC3)CC2)ccc1Nc1ncc(Cl)c(Nc2ccccc2N(C)S(C)(=O)=O)n1 (stereo not drawn) [Compound 71, N-(2-((5-chloro-2-((4-(4-(4-((1-(2-(2,6-dioxopiperidin-3-yl)-1,3-dioxoisoindolin-5-yl)piperidin-4-yl)methyl)piperazin-1-yl)piperidin-1-yl)-2-methoxyphenyl)amino)pyrimidin-4-yl)amino)phenyl)-N-methylmethanesulfonamide]	+ (Protein degradation 20~80%)	++ (Protein degradation > 80%)	7.77 h	1230 ng·h/mL	–
